Data: the supplement of paper PMC11451515

Test system: P12-Ichikawa
Experiment: cell viability relative to DMSO control; higher = less cytotoxic
Conditions: 48 h
How it was run: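 NOMO1, SEM and P12-Ichikawa leukemia cells spent at least four passages adapting to each medium before use. They were seeded at 500 cells/well (NOMO1, SEM) or 1000 cells/well (P12-Ichikawa) in 5 μl in 1536-well plates and pin-dosed with library compounds in DMSO at 11 threefold steps from 47 μM down to 0.79 nM. After 48 h at 37°C, CellTiter-Glo One luminescence was read. Viability is reported as a percentage of the DMSO wells on each plate, with cell-free wells as background.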

[1] = HPLM + 10% dialyzed FBS, 0.000781 µM
[2] = HPLM + 10% dialyzed FBS, 0.00234 µM
[3] = HPLM + 10% dialyzed FBS, 0.00702 µM
[4] = HPLM + 10% dialyzed FBS, 0.0211 µM
[5] = HPLM + 10% dialyzed FBS, 0.0632 µM
[6] = HPLM + 10% dialyzed FBS, 0.19 µM
[7] = HPLM + 10% dialyzed FBS, 0.569 µM
[8] = HPLM + 10% dialyzed FBS, 1.71 µM
[9] = HPLM + 10% dialyzed FBS, 5.12 µM
[10] = HPLM + 10% dialyzed FBS, 15.4 µM
[11] = HPLM + 10% dialyzed FBS, 46.1 µM
[12] = RPMI 5 mM glucose + 10% FBS, 0.000781 µM
[13] = RPMI 5 mM glucose + 10% FBS, 0.00234 µM
[14] = RPMI 5 mM glucose + 10% FBS, 0.00702 µM
[15] = RPMI 5 mM glucose + 10% FBS, 0.0211 µM
[16] = RPMI 5 mM glucose + 10% FBS, 0.0632 µM
[17] = RPMI 5 mM glucose + 10% FBS, 0.19 µM
[18] = RPMI 5 mM glucose + 10% FBS, 0.569 µM
[19] = RPMI 5 mM glucose + 10% FBS, 1.71 µM
[20] = RPMI 5 mM glucose + 10% FBS, 5.12 µM
[21] = RPMI 5 mM glucose + 10% FBS, 15.4 µM
[22] = RPMI 5 mM glucose + 10% FBS, 46.1 µM
[23] = RPMI 5 mM glucose + 10% dialyzed FBS, 0.000781 µM
[24] = RPMI 5 mM glucose + 10% dialyzed FBS, 0.00234 µM
[25] = RPMI 5 mM glucose + 10% dialyzed FBS, 0.00702 µM
[26] = RPMI 5 mM glucose + 10% dialyzed FBS, 0.0211 µM
[27] = RPMI 5 mM glucose + 10% dialyzed FBS, 0.0632 µM
[28] = RPMI 5 mM glucose + 10% dialyzed FBS, 0.19 µM
[29] = RPMI 5 mM glucose + 10% dialyzed FBS, 0.569 µM
[30] = RPMI 5 mM glucose + 10% dialyzed FBS, 1.71 µM
[31] = RPMI 5 mM glucose + 10% dialyzed FBS, 5.12 µM
[32] = RPMI 5 mM glucose + 10% dialyzed FBS, 15.4 µM
[33] = RPMI 5 mM glucose + 10% dialyzed FBS, 46.1 µM

Structure (SMILES) | cell viability [1] [%] | cell viability [2] [%] | cell viability [3] [%] | cell viability [4] [%] | cell viability [5] [%] | cell viability [6] [%] | cell viability [7] [%] | cell viability [8] [%] | cell viability [9] [%] | cell viability [10] [%] | cell viability [11] [%] | cell viability [12] [%] | cell viability [13] [%] | cell viability [14] [%] | cell viability [15] [%] | cell viability [16] [%] | cell viability [17] [%] | cell viability [18] [%] | cell viability [19] [%] | cell viability [20] [%] | cell viability [21] [%] | cell viability [22] [%] | cell viability [23] [%] | cell viability [24] [%] | cell viability [25] [%] | cell viability [26] [%] | cell viability [27] [%] | cell viability [28] [%] | cell viability [29] [%] | cell viability [30] [%] | cell viability [31] [%] | cell viability [32] [%] | cell viability [33] [%]
CCC[S+]([O-])c1ccc2[nH]c(NC(=O)OC)nc2c1 (configuration not stated) | 98.5 | 101 | 95.7 | 96.5 | 101 | 92.7 | 102 | 91.3 | 89.5 | 25.3 | 22.6 | 84.2 | 89.9 | 89 | 89.2 | 89.7 | 93.9 | 99.8 | 85.7 | 82 | 51.1 | 27 | 92.9 | 98.8 | 87.7 | 91.2 | 95.7 | 87 | 86.3 | 84.3 | 90 | 63 | 34.7
ClC1=CC=C(C=C1)C(C#N)C2=C(Cl)C=C(C=C2Cl)N3\N=C/C(=O)NC3=O (configuration not stated) | 110 | 106 | 106 | 110 | 110 | 115 | 104 | 110 | 104 | 86.3 | 86.4 | 91 | 94.7 | 93.7 | 94.7 | 93.8 | 101 | 106 | 98.7 | 101 | 85.1 | 82.2 | 95.7 | 99.3 | 104 | 100 | 105 | 102 | 93.7 | 108 | 96.3 | 79.6 | 76
C[C@]12CC[C@H]3[C@@H](CC[C@H]4NC(=O)\C=C/[C@]34C)[C@@H]1CC[C@@H]2C(=O)NC5=CC(=CC=C5C(F)(F)F)C(F)(F)F | 109 | 112 | 112 | 111 | 115 | 111 | 102 | 104 | 91.3 | 107 | 102 | 117 | 108 | 114 | 108 | 111 | 117 | 110 | 105 | 107 | 103 | 104 | 104 | 111 | 109 | 108 | 117 | 99.2 | 99.3 | 98.4 | 96.7 | 106 | 97.5
O=C(O)Cn1nnc(-c2cc(N3CCC(Oc4cc(F)ccc4Br)CC3)no2)n1 | 97.6 | 114 | 107 | 114 | 116 | 123 | 105 | 112 | 113 | 12 | 11 | 103 | 112 | 109 | 118 | 118 | 122 | 112 | 118 | 112 | 18 | 13.4 | 93.2 | 117 | 111 | 115 | 118 | 116 | 113 | 116 | 114 | 45.6 | 17.9
S=C(NCc1ccc2c(c1)OCO2)N1CCN(c2ncnc3c2oc2ccccc23)CC1 | 115 | 111 | 114 | 106 | 111 | 102 | 105 | 95.6 | 69.5 | 65.2 | 33.2 | 105 | 106 | 108 | 103 | 111 | 102 | 96.2 | 74.1 | 52.7 | 54 | 29.6 | 114 | 110 | 115 | 106 | 107 | 108 | 99 | 77.8 | 60.4 | 64.6 | 35.3
C[C@H](NC(=O)c1sccc1OCc1ccc(Cl)cc1)c1ccccc1 | 97.3 | 87.7 | 88.8 | 83.9 | 84.4 | 78 | 86.3 | 87.2 | 81.2 | 86.2 | 82.7 | 84.7 | 84.5 | 80.8 | 85.2 | 92 | 86.4 | 81 | 85 | 74.5 | 83.5 | 78 | 84.6 | 90 | 91.9 | 88.3 | 88.4 | 83.2 | 91.1 | 77.1 | 74.5 | 82.1 | 86
CCOC(=O)[C@@H](N)Cc1ccc(-c2cc(O[C@H](c3ccc(Cl)cc3-n3ccc(C)n3)C(F)(F)F)nc(N)n2)cc1.O=C(O)CNC(=O)c1ccccc1 | 107 | 110 | 103 | 112 | 106 | 110 | 109 | 111 | 109 | 103 | 70.2 | 117 | 112 | 107 | 122 | 114 | 121 | 120 | 122 | 107 | 96.2 | 56.3 | 109 | 113 | 107 | 107 | 102 | 113 | 110 | 108 | 107 | 103 | 44.1
C[C@@H]1COCCN1c1cc(C2([S@+](C)(=N)[O-])CC2)nc(-c2ccnc3[nH]ccc23)n1 | 99.7 | 103 | 106 | 110 | 110 | 109 | 99.8 | 92.3 | 47.5 | 15.7 | 7.87 | 104 | 105 | 118 | 114 | 109 | 114 | 104 | 90.7 | 55 | 19.7 | 7.94 | 99.4 | 110 | 117 | 113 | 123 | 128 | 109 | 84.7 | 40.8 | 16.5 | 8.66
COc1cc(F)c(F)c(Nc2ccc(I)cc2F)c1N[S+](=O)([O-])C1(C[C@H](O)CO)CC1 | 114 | 107 | 110 | 116 | 111 | 112 | 110 | 108 | 106 | 89 | 42.7 | 110 | 123 | 128 | 113 | 112 | 104 | 115 | 118 | 115 | 96.4 | 74.8 | 123 | 120 | 126 | 118 | 116 | 104 | 118 | 122 | 123 | 97.3 | 58.2
